Legend:
[1] = system: E. coli strain (ATCC 98082 pZS_thrO, pZAlac_ilvA_LeuA, pZE12LeuA*BCDKA6_KIVD_wt); assay: Alcohol toxicity: growth (OD600) of the alcohol production strain over 7 hours; format: cell-based; details: 7-hour incubation
Procedure: Alcohol tolerance of the in vivo alcohol production strain was evaluated by supplementing the fermentation media with specified quantities of long chain alcohols, and measuring growth over 7 hours. Both the E. coli strain (ATCC 98082 pZS_thrO, pZAlac_ilvA_LeuA, pZE12LeuA*BCDKA6_KIVD_wt) and fermentation media (1×M9 metals+1× trace metal mix+0.5% yeast extract+2% glucose+antibiotics) and conditions are the same as described above (Fermentation procedure and analysis). Cells were grown in media without IPTG-induction to a starting OD600 ˜0.02 and then supplemented with either 1-petanol, 1-hexanol, 1-heptanol, or 1-octanol at specified concentrations of 10 mg/L, 50 mg/L, 250 mg/L, 500 mg/L, or 1000 mg/L. OD600 readings were taken hourly up to 7 hours.

[2] = system: Streptomyces sp. C GEO175 variant L376T_T240S, SEQ ID NO:19; assay: Steady-state kinetics of 2-ketoacid decarboxylase (ADH/NADH coupled); format: biochemical; details: relative to GEO 175, same conditions
Procedure: FIG. 6: Depicts results of kinetic characterization of GEO 175 and GEO 175 L376T_T240S. Kinetic constants were measured as described herein. The substrate 2-ketooctanoate carbon chain numbering referred to in the text is numbered in white. According to the molecular model of GEO 175, the double mutation L376T_T240S is predicted to recede the pocket by 1.4 Å and remove interactions between the binding pocket and carbon 8 of the ketoacid alkyl chain. […]
For the native KIVD and KIVD_VLV mutant, 2 ml overnight cultures of XL1B cells were transformed with pQE9 containing N-terminal his-tagged KIVD enzymes and grown in Terrific Broth (BP biomedical, Cat#3046-042) with 50 μg/mL of carbenicillin. […] Protein concentrations were determined using a Synergy H1 spectrophotometer (Biotek) by measuring absorbance at 280 nm using their calculated extinction coefficients with ExPASy ProtParam Tool.^33 All other buffers and salts were purchased from Fisher Scientific unless otherwise specified.
The kcat and KM values of selective KIVD mutants were measured for the substrates: C3, C5, isoC5, and C8. […] Activity was measured at 0.005 mM to 10 mM substrates. […]

[3] = molecular target: GEO179, 2-ketoacid decarboxylase, SEQ ID NO:14 (Klebsiella variicola, UniProt A0ACD7F8P2, H281L/S236A/T380V); assay: as above; format: biochemical; details: pH 7.5, 21° C.
Chain of GEO179, 2-ketoacid decarboxylase, SEQ ID NO:14 (A0ACD7F8P2 entry or part of it H281L/S236A/T380V): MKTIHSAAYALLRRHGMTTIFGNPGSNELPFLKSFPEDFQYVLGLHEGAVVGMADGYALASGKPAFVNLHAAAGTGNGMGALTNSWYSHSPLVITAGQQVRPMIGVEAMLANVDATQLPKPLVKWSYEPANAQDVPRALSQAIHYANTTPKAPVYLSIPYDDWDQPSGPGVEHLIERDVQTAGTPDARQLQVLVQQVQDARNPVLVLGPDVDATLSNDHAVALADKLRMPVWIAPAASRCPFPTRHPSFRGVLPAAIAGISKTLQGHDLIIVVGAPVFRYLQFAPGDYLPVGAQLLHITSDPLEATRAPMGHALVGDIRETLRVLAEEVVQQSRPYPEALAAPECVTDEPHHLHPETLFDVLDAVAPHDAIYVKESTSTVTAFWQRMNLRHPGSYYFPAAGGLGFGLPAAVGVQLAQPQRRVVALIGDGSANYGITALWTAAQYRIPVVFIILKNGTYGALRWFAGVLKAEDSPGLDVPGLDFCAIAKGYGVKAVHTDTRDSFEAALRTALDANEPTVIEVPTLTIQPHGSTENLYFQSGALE
From the text: (§1) FIG. 20: Depicts results of a structural alignment of GEOs and KIVD (GEO175=SEQ ID NO:2, GEO243=SEQ ID NO:5, GEO 250=SEQ ID NO:6, GEO 242=SEQ ID NO:7, GEO 245=SEQ ID NO:8, GEO 251=SEQ ID NO:9, GEO 247=SEQ ID NO:10, GEO 244=SEQ ID NO:11, GEO 246=SEQ ID NO:12, GEO 248=SEQ ID NO:13, GEO 179=SEQ ID NO:14, GEO 240=SEQ ID NO:15, GEO 195=SEQ ID NO:16, GEO 241=SEQ ID NO:17, GEO 249=SEQ ID NO:4, KIVD_VLV=SEQ ID NO:3). Active site residues are denoted with a black box under the residue letter.
(§2) For the native KIVD and KIVD_VLV mutant, 2 ml overnight cultures of XL1B cells were transformed with pQE9 containing N-terminal his-tagged KIVD enzymes and grown in Terrific Broth (BP biomedical, Cat#3046-042) with 50 μg/mL of carbenicillin. (Fisher scientific, Cat# BP2648-5) For the GEOs, 2 ml overnight cultures of BLR cells were transformed with pet29b+ plasmid containing N-terminal his-tagged GEOs, and grown in Terrific Broth with 50 μg/mL of kanamycin. (Fisher scientific, Cat# BP906-5) These cultures were diluted 1:1000 in 500 mL of Terrific Broth with 1 mM MgSO4, 1% glucose, and 50ug/mL of corresponding antibiotics, then grown at 37° C. for 24 hours. Cultures were pelleted down at 4700 rpm for 10 mins and resuspended in auto-induction media (LB broth, 1 mM MgSO4, 0.1 mM TPP, 1×NPS, and 1×5052) for induction at 18° C. for 34 hours. […] Protein concentrations were determined using a Synergy H1 spectrophotometer (Biotek) by measuring absorbance at 280 nm using their calculated extinction coefficients with ExPASy ProtParam Tool.^33 All other buffers and salts were purchased from Fisher Scientific unless otherwise specified.
(§3) The kcat and KM values of selective KIVD mutants were measured for the substrates: C3, C5, isoC5, and C8. […] Activity was measured at 0.005 mM to 10 mM substrates. […] Absorbance readings were taken every 1-minute at OD340 at 21° C. for 60 minutes using the Synergy H1. Kinetic parameters (kcat and KM) were determined by fitting initial velocity versus substrate concentration data to the Michaelis-Menten equation.

[4] = system: GEO195, 2-ketoacid decarboxylase, SEQ ID NO:16; assay: as above; format: biochemical; details: pH 7.5, 21° C.
From the text: as §1, §2, §3

[5] = 250 mg l^−1 alcohol supplemented, OD 1.9 without toxicity
[6] = 500 mg l^−1 alcohol supplemented
[7] = 1000 mg l^−1 alcohol supplemented

| Compound | final OD of E. coli cultures [1, 5] | final OD of E. coli cultures [1, 6] | final OD of E. coli cultures [1, 7] | decrease in catalytic efficiency relative to GEO 175 [2] | also measured |
| --- | --- | --- | --- | --- | --- |
| CCCCCCO [hexanol, 1-hexanol] | approximately 1.6 | 1.0 | 0.2 |  |  |
| CCCCCCCO [heptanol, 1-heptanol] | approximately 1.6 | 0.1 | no significant growth |  |  |
| CC(C)C(=O)C(=O)O [iso C5, 2-ketoisovaleric acid] |  |  |  | less than 2 fold | kcat [3]: 0.39 ± 0.01 s⁻¹; Km [4]: 9.1 ± 0.3 mM; kcat [4]: 0.072 ± 0.001 s⁻¹ |
| CCCCCCCCO [C8 alcohol, 1-octanol] | ~1.0 | No significant growth |  |  |  |
| CC(=O)C(=O)O [C3] |  |  |  | less than 2 fold |  |
| CCCCCO [pentanol, 1-pentanol] |  |  | 1.5 |  |  |

From patent publication US10829756B2, “Discovery of enzymes from the alpha-keto acid decarboxylase family” (Regents of the University of California, priority 2015, dated 2020)
